Laboratory results reported in patent publication US9034574B2, “Agents for reversing epigenetic silencing of genes” (The Johns Hopkins University, priority 2006, dated 2015).
Where two headings read alike, the source gives them in different places.

Columns and labels:
[1] = molecular target: MeCP2_MBD binding to 5-mCpG containing DNA (Homo sapiens (Human), UniProt P51608); experiment: DNA-protein binding assay, MeCP2_MBD to methylated oligonucleotide; conditions: His-tagged MeCP2_MBD, read-out: MeCP2 Binding Inhibition (IC50 in μM)
Experimental: (§1) To determine if the “lead” compounds directly interfere with MBD2 binding to ^5−m CpG containing DNA, each “lead” compound is tested for its ability to inhibit such binding using a DNA-protein binding assay. For this assay, a biotinylated and methylated oligonucleotide substrate is bound to a neutravidin-coated high binding capacity 96-well plate. His-tagged MBD2_MBD or MeCP2_MBD binds to the methylated oligonucleotide. An Anti-His-HRP conjugated antibody is used to detect bound protein. Introducing the “lead” compounds into the reaction mix at various concentrations provides a MBD2_MBD-DNA binding curve from which an IC50 is derived.
(§2) DNA binding assays using recombinant MBDs. […] After centrifugation in a microfuge, the soluble protein fraction, containing MBD2, was recovered. A similar approach was used for producing cloned recombinant MeCP2. […] After washing four times with binding buffer and drying wells, TMB is added to each well followed by 1 N HCl, and A450 is measured on a microplate reader. The IC50 for each “lead” compound is derived from the DNA-protein binding curve.

[2] = molecular target: recombinant DNMT1 (Homo sapiens (Human), UniProt P26358); experiment: DNA methyltransferase activity assay with recombinant DNMT1; format: biochemical; conditions: for DNMT1 Inhibition (IC50 in μM): recombinant DNMT1
From the text: (§3) The outputs of these experiments were Ki's for each of the DNMT enzymes. When considered along with potency and efficacy data from the screening assays, the results of analyses of “lead” compounds for interference with MBD2 binding to ^5−m CpG-containing DNA, for direct binding to ^5−mCpG-containing DNA, and for inhibition of DNMTs allow prioritization of “lead” compounds. Ideally, “lead” compounds that activate expression from GSTP1 alleles with CpG island hypermethylation at sub-μM concentrations, target MBD2 directly, and fail to inhibit DNMTs, are high-priority “lead” compounds.
DNMT assays using recombinant DNMT1, DNMT3a, and DNMT3b. To produce recombinant DNMT1, full-length DNMT1 cDNA was amplified in two segments by RT-PCR from human brain poly A+ RNA (BD Clontech). Amplification of the upstream segment was performed using the PCR primers (5′-[…]-3′ (SEQ ID NO:4) and 5′-[…]-3′ (SEQ ID NO:5)), and amplification of the downstream segment was performed using the PCR primers (5′-[…]-3′ (SEQ ID NO:6) and 5′-[…]-3′ (SEQ ID NO:7)). The upstream and downstream segments were subcloned into the pCMVscript® vector (Stratagene), and assembled using an internal BstEII site that is common to both segments to create pCMVscript-DNMT1. PCR primers containing EcoRI and KpnI sites (5′-GAATTCCCGGCGCGTACCG-3′ (SEQ ID NO:8) and 5′-[…]-3′ (SEQ ID NO:9)) were used to amplify the DNMT1 coding sequence from pCMVscript-DNMT1. […] This pFB6H-DNMT1 construct was used to transform DH10Bac™ E. coli competent cells (Invitrogen) to generate a recombinant expression bacmid via site-specific transposition. The DNMT1 expression bacmid was transfected into Sf9 insect cells to produce recombinant DNMT1 baculovirus particles, which were subsequently used to infect additional Sf9 cells (1 MOI, 48 hours) for protein production. Recombinant His(6)-(SEQ ID NO:21)-DNMT1 was recovered by Ni2+ affinity chromatography. After lysis in 50 mM Na2HPO4 pH 7.6, 10 mM imidazole, 500 mM NaCl, 1% Igepal CA-630, 10% glycerol, and 1× Complete™ Protease Inhibitor (Roche) by two freeze-thaw cycles, His(6)-(SEQ ID NO:21)-DNMT1 was bound to Ni-NTA agarose (Qiagen) for 1.5 hours at 4° C. The supernatant was removed, and the beads were washed twice with 50 mM Na2HPO4 pH 7.6, 20 mM imidazole, 500 mM NaCl, 10% glycerol, and 1× Complete™ Protease Inhibitor to remove contaminating proteins. The beads were then washed twice with 50 mM Na2HPO4 pH 7.6, 10 mM NaCl, 10% glycerol, and 1× Complete™ Protease Inhibitor to remove excess salt. His(6)-(SEQ ID NO:21)-DNMT1 was eluted from the Ni-NTA agarose by adding 50 mM Na2HPO4 pH 7.6, 250 mM imidazole, 10 mM NaCl, 10% glycerol, and 1× Complete™ Protease Inhibitor. Spin dialysis was used to concentrate the protein and exchange the buffer 50 mM Na2HPO4 pH 7.6, 10 mM NaCl, 1 mM EDTA, 1 mM DTT, 20% glycerol, and 1× Complete™ Protease Inhibitor. Protein concentration was determined using the BCA assay (Pierce). Recombinant DNMT1 was stored at −80° C. until further use.
DNA methyltransferase activity assays were performed by combining 100 nM His(6)-(SEQ ID NO:21)-DNMT with 5′-biotinylated synthetic hemi-methylated or unmethylated oligonucleotide substrate containing 1 μM CG (Top Strand 5′-[…]-3′ (SEQ ID NO:18), Bottom Strand 5′-[…]-3′ (SEQ ID NO:19)) and 1 μM S-adenosyl-L-[methyl-^3H]Methionine™ (Amersham TRK581 60-85 Ci/mmol). After incubation at 37° C. for 30 minutes, reactions were stopped by adding one volume of 10 mM cold S-adenosyl-L-Methionine™ (Sigma). To purify the oligonucleotides, reactions will be added to a SAm^2® 96 Biotin Capture Plate (Promega). The plate was washed 7 times with PBS+2M NaCl and 3 times with dH20 to remove His(6)-(SEQ ID NO:21)-DNMT1 and S-adenosyl-L-methionine.

[3] = test system: mesothelioma; conditions: cited from earlier work
[4] = test system: melanoma; conditions: cited from earlier work
[5] = molecular target: recombinant DNMT3a (Homo sapiens (Human), UniProt Q9Y6K1); experiment: DNA methyltransferase activity assay with recombinant DNMT3a; format: biochemical; conditions: read-out: Ki for inhibition of DNMT3a
From the text: as §3
His(6)-(SEQ ID NO:21)-DNMT3a and His(6)-(SEQ ID NO:21)-DNM3b2 were expressed and purified in Sf9 cells as described above with the following modifications. […]
DNA methyltransferase activity assays were performed by combining 100 nM His(6)-(SEQ ID NO:21)-DNMT with 5′-biotinylated synthetic hemi-methylated or unmethylated oligonucleotide substrate containing 1 μM CG (Top Strand 5′-[…]-3′ (SEQ ID NO:18), Bottom Strand 5′-[…]-3′ (SEQ ID NO:19)) and 1 μM S-adenosyl-L-[methyl-^3H]Methionine™ (Amersham TRK581 60-85 Ci/mmol). […] After drying the plate, 30 μl Microscint-PS™ scintillation fluid (Packard) was added to each well, and tritium was quantitated using the TopCount™ NXT liquid scintillation counter (Packard). […]

[6] = molecular target: MBD2_MBD binding to 5-mCpG containing DNA (Homo sapiens (Human), UniProt Q9UBB5); experiment: DNA-protein binding assay, MBD2_MBD to methylated oligonucleotide; conditions: His-tagged MBD2_MBD
Experimental: as §1, §2

[7] = test system: ovarian ca; conditions: cited from earlier work
[8] = test system: breast ca; conditions: cited from earlier work
[9] = test system: colon ca; conditions: cited from earlier work
[10] = test system: lung ca; conditions: n 15, 200-600 mg/M^2 over 1 day iv; cited from earlier work
[11] = test system: prostate ca; conditions: n 14, 225 mg/M^2 over 1 day iv; cited from earlier work
[12] = n 4, 275-850 mg/M^2 over 10 days sq

Chain of recombinant DNMT1 (P26358 whole entry): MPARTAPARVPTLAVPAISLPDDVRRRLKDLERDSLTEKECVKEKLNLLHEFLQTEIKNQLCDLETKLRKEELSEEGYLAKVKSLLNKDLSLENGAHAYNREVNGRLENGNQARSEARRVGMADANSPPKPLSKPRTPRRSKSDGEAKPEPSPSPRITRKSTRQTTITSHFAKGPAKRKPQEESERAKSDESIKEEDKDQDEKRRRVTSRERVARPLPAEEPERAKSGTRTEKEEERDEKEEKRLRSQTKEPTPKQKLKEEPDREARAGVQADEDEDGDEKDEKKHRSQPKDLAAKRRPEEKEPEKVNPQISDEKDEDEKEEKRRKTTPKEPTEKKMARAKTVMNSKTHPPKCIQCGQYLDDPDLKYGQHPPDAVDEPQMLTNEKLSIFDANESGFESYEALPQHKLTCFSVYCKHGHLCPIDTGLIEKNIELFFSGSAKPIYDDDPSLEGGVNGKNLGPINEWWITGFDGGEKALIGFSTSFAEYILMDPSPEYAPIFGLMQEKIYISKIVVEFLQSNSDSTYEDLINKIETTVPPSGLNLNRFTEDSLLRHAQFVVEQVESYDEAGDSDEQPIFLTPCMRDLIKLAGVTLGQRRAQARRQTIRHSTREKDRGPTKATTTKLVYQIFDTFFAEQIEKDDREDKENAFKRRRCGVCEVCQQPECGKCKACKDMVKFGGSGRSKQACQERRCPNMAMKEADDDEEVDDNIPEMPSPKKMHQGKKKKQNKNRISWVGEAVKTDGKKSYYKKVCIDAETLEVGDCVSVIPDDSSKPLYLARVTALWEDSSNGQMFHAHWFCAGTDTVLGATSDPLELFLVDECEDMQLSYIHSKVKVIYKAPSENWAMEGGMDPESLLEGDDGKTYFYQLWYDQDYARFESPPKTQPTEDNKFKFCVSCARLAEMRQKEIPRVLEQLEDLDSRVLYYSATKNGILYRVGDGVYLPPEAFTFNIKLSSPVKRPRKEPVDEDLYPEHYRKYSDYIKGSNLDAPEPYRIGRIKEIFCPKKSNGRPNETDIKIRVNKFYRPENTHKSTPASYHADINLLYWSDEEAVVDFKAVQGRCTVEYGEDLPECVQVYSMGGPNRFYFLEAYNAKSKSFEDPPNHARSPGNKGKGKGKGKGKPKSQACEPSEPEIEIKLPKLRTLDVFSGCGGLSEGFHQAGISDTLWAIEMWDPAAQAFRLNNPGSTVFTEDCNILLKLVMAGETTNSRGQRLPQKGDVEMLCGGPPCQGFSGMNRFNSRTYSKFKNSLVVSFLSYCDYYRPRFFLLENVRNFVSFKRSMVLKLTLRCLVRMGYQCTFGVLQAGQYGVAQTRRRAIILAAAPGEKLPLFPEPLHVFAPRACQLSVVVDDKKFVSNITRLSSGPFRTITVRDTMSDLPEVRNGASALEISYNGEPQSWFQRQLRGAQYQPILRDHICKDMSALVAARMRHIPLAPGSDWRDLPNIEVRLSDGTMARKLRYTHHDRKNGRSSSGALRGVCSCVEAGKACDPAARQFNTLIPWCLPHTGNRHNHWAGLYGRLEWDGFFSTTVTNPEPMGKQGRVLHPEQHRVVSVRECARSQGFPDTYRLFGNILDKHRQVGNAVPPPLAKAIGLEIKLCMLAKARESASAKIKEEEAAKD
Chain of MeCP2_MBD binding to 5-mCpG containing DNA (P51608 90-162): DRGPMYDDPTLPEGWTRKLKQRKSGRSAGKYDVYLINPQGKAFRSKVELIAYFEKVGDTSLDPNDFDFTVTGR
Chain of MBD2_MBD binding to 5-mCpG containing DNA (Q9UBB5 145-213): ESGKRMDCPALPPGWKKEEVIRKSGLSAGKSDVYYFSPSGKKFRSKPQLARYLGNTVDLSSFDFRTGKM
Chain of recombinant DNMT3a (Q9Y6K1 whole entry, looked up): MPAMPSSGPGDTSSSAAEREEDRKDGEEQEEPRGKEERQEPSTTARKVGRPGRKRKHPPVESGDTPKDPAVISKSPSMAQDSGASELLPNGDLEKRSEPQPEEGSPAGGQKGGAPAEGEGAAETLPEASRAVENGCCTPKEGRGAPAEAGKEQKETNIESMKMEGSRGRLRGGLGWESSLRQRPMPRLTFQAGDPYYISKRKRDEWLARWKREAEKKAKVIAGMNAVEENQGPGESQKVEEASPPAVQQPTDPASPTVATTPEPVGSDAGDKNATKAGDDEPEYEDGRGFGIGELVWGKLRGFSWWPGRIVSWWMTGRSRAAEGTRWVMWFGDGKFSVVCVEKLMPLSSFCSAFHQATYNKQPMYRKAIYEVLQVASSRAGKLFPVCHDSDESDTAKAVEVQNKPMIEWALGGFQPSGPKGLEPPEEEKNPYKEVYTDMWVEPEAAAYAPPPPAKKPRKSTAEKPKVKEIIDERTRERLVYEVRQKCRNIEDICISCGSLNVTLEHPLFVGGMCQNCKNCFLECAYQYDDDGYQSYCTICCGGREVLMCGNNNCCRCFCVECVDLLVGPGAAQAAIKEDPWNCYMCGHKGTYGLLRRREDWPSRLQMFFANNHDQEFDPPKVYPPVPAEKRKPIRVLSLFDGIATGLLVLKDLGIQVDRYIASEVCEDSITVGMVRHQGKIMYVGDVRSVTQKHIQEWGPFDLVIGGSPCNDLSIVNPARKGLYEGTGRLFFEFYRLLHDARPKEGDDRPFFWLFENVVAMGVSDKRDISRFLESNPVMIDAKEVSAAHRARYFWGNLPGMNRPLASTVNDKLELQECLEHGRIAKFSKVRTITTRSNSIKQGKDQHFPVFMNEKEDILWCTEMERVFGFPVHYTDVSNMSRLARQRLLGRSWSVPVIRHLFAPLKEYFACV

| Structure (SMILES) | IC50 [1] | DNMT1 Inhibition (IC50 in μM) [2] | further results |
| --- | --- | --- | --- |
| c1ccc(Nc2nc(-c3ccccn3)cs2)nc1 [(I)] | 10.5 µM |  |  |
| Oc1cccc(Nc2nc(-c3ccccn3)cs2)c1 [(II)] | > 200 µM | No Inhibition |  |
| OC1(C(F)(F)F)CC(c2ccccc2)=NN1C(=S)c1ccccc1 (stereo not drawn) [(XX)] | > 200 µM | No Inhibition |  |
| COc1cc(O)cc(Br)c1/C=N/Nc1nc2ccccc2s1 [(XVIII)] | > 200 µM | No Inhibition |  |
| Clc1ccc(C2NN=C(c3ccccc3)S2)cc1 (stereo not drawn) [(XXI)] | 33.9 µM | No Inhibition |  |
| Oc1ccc2ccccc2c1C1NN=C(c2ccccc2)S1 (stereo not drawn) [(XXII)] | 0.61 µM | No Inhibition |  |
| COc1ccc(NC(=O)Nc2cccc3cccnc23)cc1 [(XXIV)] | 2.81 µM |  |  |
| NC1=NCN([C@@H]2O[C@H](CO)[C@@H](O)[C@H]2O)C(=O)N1 [dh-5-aza-C] |  |  | % Response ([3]; n 29, 1500 mg/M^2 over 5 days cl): 17%; % Response ([3]; n 41, 1500 mg/M^2 over 5 days cl): 17%; % Response ([4]; n 40, 5 g/M^2 over 1 day cl): 20% |
| CCN(CC)CCNC(=O)c1ccc(N)cc1 [procainamide, reference compound] |  |  | Ki ([2]; mixed mechanism, read-out: Ki for inhibition of DNMT1): 7.2 µM; Ki [5]: 1400 µM |
| Oc1ccc(C2NN=C(c3ccccc3)S2)cc1 (stereo not drawn) [(XVII)] | 16.9 µM | No Inhibition |  |
| Cn1c2ccccc2n2cc(-c3ccc([N+](=O)[O-])cc3)nc12 [(III)] | > 200 µM | No Inhibition |  |
| COc1ccc([N+](=O)[O-])cc1C1NN=C(c2ccccc2)S1 (stereo not drawn) [(XIX)] |  | No Inhibition | MBD2 Binding Inhibition (IC50 in μM) [6]: In- conclusive |
| COc1ccccc1-c1nc(-c2cccc([N+](=O)[O-])c2)no1 [(X)] | > 200 µM | No Inhibition |  |
| Nc1ncn([C@@H]2O[C@H](CO)[C@@H](O)[C@H]2O)c(=O)n1 [Compound 5-aza-C, 5-az-cytidine] |  |  | % Response [7, 12]: 25%; % Response ([4]; n 5, 300-700 mg/M^2 over 8 days iv): 40%; % Response ([8]; 1.6 mg/kg over 10 days iv): 17%; % Response [8, 12]: 25%; % Response ([8]; n 11, 300-700 mg/M^2 over 8 days iv): 63%; % Response ([8]; n 31, 600 mg/M^2 over 10 days iv): 6%; % Response ([9]; n 4, 275-850 mg/M^2 over 8 days sq): 0%; % Response ([9]; n 6, 300-700 mg/M^2 over 10 days iv): 33%; % Response ([9]; n 27, dose not given): 4% |
| Nc1ncn([C@H]2C[C@H](O)[C@@H](CO)O2)c(=O)n1 [Compound 5-aza-dC, 5-aza-deoxycytidine] |  |  | % Response ([7]; n 24, 225 mg/M^2 over 10 days iv): 8%; % Response ([4]; n 18, 225 mg/M^2 over 1 day iv): 0%; % Response [10]: 20%; % Response [11]: 16%; % Response ([9]; n 42, 225 mg/M^2 over 1 day iv): 0% |
| Nc1cccc(-c2nnc(-c3ccccc3)o2)c1 [(XXIII)] | 8.59 µM | No Inhibition |  |
| CCOc1ccc(Nc2nc(-c3ccccn3)cs2)cc1 [(XXV)] | > 200 µM |  |  |
